Reference: US11541059B2, “Heterocyclic compounds and uses thereof” (Infinity Pharmaceuticals, Inc., priority 2014, dated 2023)

Assays:
[1] = tested on: CD206 population in LLC tumors; assay: CD206 levels of macrophages in LLC tumors (FACS); type: in vivo, mouse; details: alone and in combination with cyclophosphamide
Method: Tumors were harvested on the last day or if the vehicles reached approx. 3000 mm^3. Tumors were cut in half. One half was cut in half again with ½ fixed in 10% NBF, and the other was frozen in OCT for frozen sections. The remaining half was processed to single cell suspension and evaluated by FACS using two panels. Antibodies used for staining for FACS were as follows. Staining with CD4 and CD8a: CD45-AF700 (BDB560510) at 1.25 ug/ml; […] Staining with CD11b and GR-1: CD45-AF700 (BDB560510) at 1.25 ug/ml; […] CD45-AF700 (BDB560510) at 1.25 ug/ml; […] Staining with MDSC panel: CD45-AF700 (BDB560510) at 1.25 ug/ml; […] Ly6C APC at 2.5 ug/ml; and Ly6G FITC at 2.5 ug/ml.

Oral half-life = type: in vivo; details: plasma
From the text: Compound BB's oral exposure is high in rat, dog and monkey. Good oral bioavailability and low clearance in rodent and non-rodent animal species results in high oral exposure.

[2] = tested on: CXCL12-induced pAKT in T-cells; assay: CXCL12-induced pAKT assay in T-cells; type: cell-based, human; details: FIG. 9
From the text: There was a tight correlation between the EC50s observed in the CXCL12-induced pAKT assay and the T-cell migration assay.

[3] = Stability in simulated gastric fluid; type: physicochemical
From the text: The phyiscochemical properties of Compound BB are drug-like, and suitable for use of the compound as a drug.

[4] = tested on: LPS induced neutrophil influx in BALF; assay: LPS-induced neutrophilia, oral administration; type: in vivo; details: rat, p.o., 4 hours post-LPS challenge
From the text: This study also includes assessment of the exposure to the compounds in plasma and lung tissues.

[5] = tested on: tumor cell inhibition of T cell proliferation; assay: Ex vivo T cell proliferation (CFSE) with CT26 tumor cells; type: in vivo, mouse; details: tumors from treated mice
Method: CT26 was an N-nitroso-N-methylurethane-(NNMU) induced, undifferentiated colon carcinoma cell line. It was cloned to generate the cell line designated CT26.WT (ATCC CRL-2638).
The duration of the study was 1 week under treatment. 5-6 week old female, Balb/c mice (Jackson Labs) implanted subcutaneously with 5×10^5 CT26 cells in 100 μl PBS. CT26 cells were cultured in RPMI supplemented with 10% FBS. Dosing commenced when tumors reached an average volume of 500-600 mm^3.
For group 3 (αPD-L1), the mice were dosed once, IP, 200 ug (200 uL from 1 mg/ml stock).
Mice were monitored daily for adverse clinical effects. Body weights and tumor luminescent were measured two times per week. At the end of the study, tumors were harvested and cut into 3 parts; one piece for CTL killing assay, one piece for CSFE proliferation assay and one piece (split into two) for OCT/FFPE.
Spleens from 3 vehicle treated tumor bearing mice were physically dissociated in T cell media and passed through a 70 micron filter. After red cell lysis, the cells were pooled, brought up in PBS and stained with CFSE (invitrogen). After washing, these cells were brought up in 20 ml T cell media. Half the cells received Dynal mouse activator beads (CD3/CD28 crosslinking at a 1:1 concentration). CD3/CD28 beads induce proliferation in splenocytes from tumor bearing mouse (data not shown). […]

[6] = tested on: RANKL driven differentiation of osteoclasts from bone marrow macrophages; assay: Osteoclast differentiation assay (TRAP); type: cell-based, mouse; details: TRAP positive cells, FIG. 17
Method: Long bones from young C57B6 mice were harvested and bone marrow was extruded by gentle lavage of the bone marrow cavities with a 28 gage needle. The cells were screened, and red blood cells were removed using red blood cell lysis buffer (Sigma). Bone marrow cells were differentiated to macrophages using 20 ng/ml mouse MCSF (RnD systems) for 3 days (RPMI and 20% FCS). The cell were washed with PBS, and lifted with Accutase for 10 minutes.
The bone marrow macrophage cells were plated at 150,000 cells per well in a 96 well plate in a MEM 10% FCS. […] Then 25 ng/ml mouse MCSF with or without mouse RANKL (100 ng/ml, RnD systems) was added for 6 days. Media changes (including drugs) were done at day 3 and day 5. The cells were then fixed and stained with the tartrate resistant acid phosphatase (TRAP) assay kit from Sigma according to the manufactures instructions. TRAP positive cells (osteoclasts and cells undergoing an osteoclastic differentiation) in a transect of the triplicate wells (at 20× […]) were manually counted by going through the widest part of each well.

LLC tumor = LLC tumor brei model with or without cyclophosphamide; type: in vivo, mouse; details: BB 15 mg/kg QD PO; cyclophosphamide 50 mg/kg EOD IP, FIG. 48
Method: In this experiment, treatment began when tumors reached approx. 150 mm^3—around day 12. Caliper and xenogen images were monitored. Treatment groups n=13-15/group. […] Samples for FACs analysis were collected on day 23 post implant. Using FACS, cells were assayed for the level of CD11b and Gr-1.

SMILES: C[C@H](NC(=O)c1c(N)nn2cccnc12)c1cc2cccc(C#Cc3cnn(C)c3)c2c(=O)n1-c1ccccc1 [Compound BB]
- CD206 population in LLC tumors [1]: decrease in the CD206 population
- half-life (Oral half-life; dog, 5 mg/kg): ~7.1 h
- half-life (Oral half-life; monkey, 5 mg/kg): ~10.2 h
- half-life (Oral half-life; rat, 7.5 mg/kg): ~3.3 h
- Inhibition of CXCL12-induced pAKT in T-cells [2]: inhibited CXCL12-induced pAKT in T-cells more strongly than a PI3K-δ inhibitor
- Stability in 38° simulated gastric fluid [3]: > 4 h
- Neutrophil in bronchoalveolar lavage fluid (BALF) [4]: reduced neutrophil
- Suppression of T cell proliferation by cells derived from CT26 tumors [5]: can release the suppression
- RANKL driven differentiation of osteoclasts from bone marrow macrophages [6]: prevents RANKL driven differentiation of osteoclasts
- Tumor growth, LLC tumor brei model (LLC tumor): reduced tumor growth by about the same amount
